What was measured:
L. donovani CYP51 = L. donovani CYP51 (Leishmania donovani, UniProt A0A3S7WRS7); test: UV-Vis difference binding spectra of ligands with purified recombinant CYP51
CYP51 = conditions: 50 μM substrate, TbCPR, NADPH, pH 6.2, 37 °C
L. donovani CYP5122A1 = molecular target: T1, L. donovani CYP5122A1 (Leishmania donovani, UniProt A0A3S7X0B6); test: UV-Vis difference binding spectra of ligands with purified recombinant CYP5122A1
T1 sequence (A0A3S7X0B6 61-592): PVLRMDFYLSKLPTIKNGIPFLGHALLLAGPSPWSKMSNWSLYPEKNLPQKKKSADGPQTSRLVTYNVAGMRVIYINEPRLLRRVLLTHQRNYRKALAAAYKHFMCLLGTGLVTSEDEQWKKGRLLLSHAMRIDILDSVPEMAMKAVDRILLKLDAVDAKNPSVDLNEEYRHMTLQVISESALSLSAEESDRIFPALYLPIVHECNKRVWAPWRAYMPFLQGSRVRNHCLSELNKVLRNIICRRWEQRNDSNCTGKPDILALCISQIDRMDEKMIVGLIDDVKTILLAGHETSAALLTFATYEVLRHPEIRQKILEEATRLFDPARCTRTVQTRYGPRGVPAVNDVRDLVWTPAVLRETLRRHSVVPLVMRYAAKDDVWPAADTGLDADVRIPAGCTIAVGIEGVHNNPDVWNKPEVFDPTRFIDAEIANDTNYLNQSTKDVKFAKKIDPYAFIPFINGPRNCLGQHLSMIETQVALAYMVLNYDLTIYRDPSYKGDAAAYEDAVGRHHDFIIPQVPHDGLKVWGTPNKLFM

CYP5122A1 = conditions: 50 μM substrate, TbCPR, NADPH, pH 6.2, 37 °C
[1] = tested on: L. donovani LV82 promastigotes; test: microbe, parasite or virus in culture; conditions: Leishmania donovani, 72 h, read-out: EC50 (L. donovani)
[2] = tested on: L. donovani LV82 promastigote cultures; test: Microscopic counts of LV82 promastigote cultures; type: cell-based, Leishmania donovani; conditions: LV82 promastigotes, cell counts daily for three days
LdCYP51 [3] = molecular target: T2, LdCYP51 (Leishmania donovani, UniProt A0A3S7WRS7); test: biochemical
LdCYP5122A1 [4] = molecular target: T3, LdCYP5122A1 (Leishmania donovani, UniProt A0A3S7X0B6); test: biochemical
T3 sequence (A0A3S7X0B6 61-592): T1 sequence (A0A3S7X0B6 61-592)

LdCYP5122A1 [5] = molecular target: T3, LdCYP5122A1
[6] = tested on: sterol profile of LV82 promastigotes; test: LC-MS/MS sterol analysis of inhibitor-treated LV82 promastigotes; type: cell-based, Leishmania donovani; conditions: 20 μM clotrimazole vs. DMSO, 24 hr
[7] = tested on: L. donovani strain 1S2D promastigotes (Ld1S WT and CYP5122A1 mutants); conditions: promastigote growth, 48 hours
[8] = tested on: intracellular L. major and L. amazonensis; conditions: cited from earlier work
LdCYP51 [9] = molecular target: T2, LdCYP51; conditions: 100 μM

T2 sequence (A0A3S7WRS7 32-480): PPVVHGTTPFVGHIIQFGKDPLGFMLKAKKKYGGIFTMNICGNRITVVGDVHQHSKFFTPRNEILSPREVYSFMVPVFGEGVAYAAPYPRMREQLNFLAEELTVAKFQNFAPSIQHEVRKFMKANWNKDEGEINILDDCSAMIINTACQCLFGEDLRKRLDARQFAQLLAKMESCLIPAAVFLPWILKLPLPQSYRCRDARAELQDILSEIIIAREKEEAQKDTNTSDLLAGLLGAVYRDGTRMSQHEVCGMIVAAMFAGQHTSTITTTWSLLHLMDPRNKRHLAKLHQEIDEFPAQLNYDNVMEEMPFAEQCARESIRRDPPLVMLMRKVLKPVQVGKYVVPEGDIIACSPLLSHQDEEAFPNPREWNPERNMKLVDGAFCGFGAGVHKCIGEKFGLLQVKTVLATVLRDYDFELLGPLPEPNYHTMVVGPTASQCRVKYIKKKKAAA
Chain of L. donovani CYP51 (A0A3S7WRS7 32-480): as above

SMILES	Binding mode with CYP51 (difference binding spectrum) (L. donovani CYP51)	Binding mode with CYP5122A1 (difference binding spectrum) (L. donovani CYP5122A1)	EC50 [1] [nM]	SI (selectivity index) = IC50 against LdCYP5122A1/IC50 against LdCYP51 (LdCYP5122A1 [5])	IC50 (LdCYP51 [3]) [nM]	IC50 (LdCYP5122A1 [4]) [nM]	Oxidation by reconstituted CYP51 (CYP51)	Oxidation by reconstituted CYP5122A1 (CYP5122A1)	other results
CC(C)=CCC[C@@H](C)[C@H]1CC[C@@]2(C)C3=C(CC[C@]12C)[C@@]1(C)CC[C@H](O)[C@@H](C)[C@@H]1CC3 [4,14-DMZ, 4α,14α-Dimethylzymosterol]	typical type I binding	type I binding					C14-demethylation	metabolized by this enzyme	
CC(C)=CCC[C@@H](C)[C@H]1CC[C@H]2C3=CC=C4C[C@@H](O)CC[C@]4(C)[C@H]3CC[C@]12C [7-Dehydrodesmosterol]	atypical difference binding spectrum	did not induce any appreciable change					oxidized by CYP51 to form hydroxylated metabolites	No oxidation metabolite formation	
C[C@@H]1[C@H](O)[C@@H](C)/C=C/C=C/C=C/C=C/C=C/C=C/C=C/[C@H](O[C@@H]2O[C@H](C)[C@@H](O)[C@H](N)[C@@H]2O)C[C@@H]2O[C@](O)(C[C@@H](O)C[C@@H](O)[C@H](O)CC[C@@H](O)C[C@@H](O)CC(=O)O[C@H]1C)C[C@H](O)[C@H]2C(=O)O [Amphotericin B]			140 ± 10						Leishmanicidal vs. leishmanistatic effect [2]: leishmanicidal effect; inhibition at 10 µM (LdCYP51 [3]; read-out: % inhibition of LdCYP51 at 10 μM): < 25%; inhibition at 10 µM (LdCYP5122A1 [4]; read-out: % inhibition of LdCYP5122A1 at 10 μM): < 25%
c1ccc(-c2ccc(C(c3ccccc3)n3ccnc3)cc2)cc1 (stereo not shown) [Bifonazole]			12000 ± 1000	5.7	57 ± 8	330 ± 70			
Clc1ccc(CCC(Cn2ccnc2)Sc2c(Cl)cccc2Cl)cc1 (stereo not shown) [Butoconazole]			1900 ± 400	4.4	73 ± 8	320 ± 70			Leishmanicidal vs. leishmanistatic effect ([2]; listed as butaconazole): leishmanistatic effect
Clc1ccccc1C(c1ccccc1)(c1ccccc1)n1ccnc1 [Clotrimazole]	type II binding	type II binding			68 ± 4	260 ± 80			4,14-Dimethylzymosterol level normalized to DMSO-treated parasites [6]: 43 ± 18; 4CH2OH-LS level normalized to DMSO-treated parasites [6]: 2.3 ± 0.5; 5-Dehydroepisterol level normalized to DMSO-treated parasites [6]: 0.20 ± 0.04; 7-Dehydrodesmosterol level normalized to DMSO-treated parasites [6]: 0^d,**; 14-Methylfecosterol level normalized to DMSO-treated parasites [6]: Accumulated^a,***; 14-Methylzymosterol level normalized to DMSO-treated parasites [6]: 2.3 ± 0.4; Cholesterol (exogenous) level normalized to DMSO-treated parasites [6]: 1.1 ± 0.2; Ergosta-5,7-dienol level normalized to DMSO-treated parasites [6]: 0.79 ± 0.26; Ergostatetraenol level normalized to DMSO-treated parasites [6]: 0 ^d,**; Ergosterol level normalized to DMSO-treated parasites [6]: 0.26 ± 0.07; FF-MAS level normalized to DMSO-treated parasites [6]: Not detected; Lanosterol level normalized to DMSO-treated parasites [6]: 2.7 ± 0.9; T-MAS level normalized to DMSO-treated parasites [6]: Not detected; Zymosterol level normalized to DMSO-treated parasites ([6]; not separated from cholesta-7,24-dienol): 0.018 ± 0.006; 4-Methylzymosterol level normalized to DMSO-treated parasites ([6]; not separated from episterol and fecosterol): 0.025 ± 0.013; Cholesta-7,24-dienol level normalized to DMSO-treated parasites ([6]; not separated from zymosterol): 0.018 ± 0.006; Sensitivity of CYP5122A1 mutants compared with Ld1S WT [7]: no significant differences; Growth inhibition of intracellular L. major and L. amazonensis [8]: strongly inhibited the growth
Clc1ccc(COC(Cn2ccnc2)c2ccc(Cl)cc2Cl)cc1 (stereo not shown) [Econazole]					46 ± 4	470 ± 130			
C=C1CCN([C@H](C)[C@](O)(Cn2cncn2)c2ccc(F)cc2F)CC1 [Efinaconazole]			15000 ± 1000	92	68 ± 2	6200 ± 1700			
CC(C)=CCC[C@@H](C)[C@H]1CC=C2C3=C(CC[C@@]21C)[C@@]1(C)CC[C@H](O)C(C)(C)[C@@H]1CC3 [FF-MAS, 14-demethyl-14-dehydrolanosterol]	did not elicit any change	type I binding					no oxidation metabolites were detected	metabolized by this enzyme	
C[C@@H](c1nc(-c2ccc(C#N)cc2)cs1)[C@](O)(Cn1cncn1)c1cc(F)ccc1F [Isavuconazole]			12000	60	43 ± 7	2600 ± 700			
Clc1ccc(C(Cn2ccnc2)OCc2c(Cl)cccc2Cl)c(Cl)c1 (stereo not shown) [Isoconazole]			6200 ± 500						
Clc1ccc(COC(Cn2ccnc2)c2ccc(Cl)cc2Cl)c(Cl)c1 (stereo not shown) [Miconazole]					57 ± 3	1100 ± 200			Growth inhibition of intracellular L. major and L. amazonensis [8]: strongly inhibited the growth

Second part, led by results:

Binding mode with CYP51 (difference binding spectrum) (L. donovani CYP51)	Binding mode with CYP5122A1 (difference binding spectrum) (L. donovani CYP5122A1)	EC50 [1] [nM]	SI (selectivity index) = IC50 against LdCYP5122A1/IC50 against LdCYP51 (LdCYP5122A1 [5])	IC50 (LdCYP51 [3]) [nM]	IC50 (LdCYP5122A1 [4]) [nM]	SMILES	Oxidation by reconstituted CYP51 (CYP51)	Oxidation by reconstituted CYP5122A1 (CYP5122A1)	other results
typical type I binding	type I binding					CC(C)=CCC[C@@H](C)[C@H]1CC[C@@]2(C)C3=C(CC[C@]12C)[C@@]1(C)CC[C@H](O)C(C)(C)[C@@H]1CC3 [Lanosterol]	C14-demethylation	metabolized by this enzyme	
		14000 ± 1000				N=C(N)c1ccc(OCCCCCOc2ccc(C(=N)N)cc2)cc1 [Pentamidine]			Inhibition of LdCYP5122A1 at 100 μM (LdCYP5122A1 [5]; 100 μM): No inhibition at 100 μM; Inhibition of LdCYP51 at 100 μM (LdCYP51 [9]): No inhibition at 100 μM
		12000 ± 2000	248	49 ± 8	12000 ± 4000	C[C@@H](c1nc(-c2ccc(C#N)cc2)cs1)[C@](O)(Cn1cncn1)c1ccc(F)cc1F [Ravuconazole]			
		7100 ± 500	17	64 ± 7	1100 ± 200	Clc1ccc(C(Cn2ccnc2)OCc2csc3c(Cl)cccc23)c(Cl)c1 (stereo not shown) [Sertaconazole]			
did not elicit any change	type I binding					CC(C)=CCC[C@@H](C)[C@H]1CC[C@H]2C3=C(CC[C@]12C)[C@@]1(C)CC[C@H](O)C(C)(C)C1CC3 (stereo partly drawn) [T-MAS, 4,4-dimethylcholesta-8,24-dien-3β-ol]	no oxidation metabolites were detected	metabolized by this enzyme	
		13000 ± 1000	140	83 ± 9	12000 ± 3000	CC(C)N1CCN(c2ccc(OCC3COC(Cn4cncn4)(c4ccc(Cl)cc4Cl)O3)cc2)CC1 (stereo not shown) [Terconazole]			
atypical difference binding spectrum	did not induce any appreciable change					CC(C)=CCC[C@@H](C)[C@H]1CC[C@H]2C3=C(CC[C@]12C)[C@@]1(C)CC[C@H](O)C[C@@H]1CC3 [Zymosterol, 5α-Cholesta-8,24-dien-3β-ol]	oxidized by CYP51 to form hydroxylated metabolites	No oxidation metabolite formation	

From publication PMC11528044 (Nature Communications, 2024)
